From PMC7216583 (Parasites & Vectors, 2020)
Counter-ions that a name gives are not always drawn. Like-named read-outs stand apart in the source and are kept apart here.

Key:
[1] = target: transient receptor potential vanilloid-1 (TRPV1); design: method as in vendor brief description; conditions: ref vendor brief description; cited from earlier work
[2] = tested on: Toxoplasma gondii RH-2F tachyzoites; experiment: microbe, parasite or virus in culture; conditions: 72 h
TNF-α = tested on: TNF-α; design: method as in vendor brief description; conditions: ref vendor brief description; cited from earlier work
PDE4 = tested on: PDE4; design: method as in vendor brief description; conditions: ref vendor brief description; cited from earlier work
c-Raf = tested on: c-Raf; design: method as in vendor brief description; conditions: ref vendor brief description; cited from earlier work
B-Raf = tested on: B-Raf; design: method as in vendor brief description; conditions: ref vendor brief description; cited from earlier work
CSF-1R = tested on: CSF-1R; design: method as in vendor brief description; conditions: ref vendor brief description; cited from earlier work
Abl = tested on: Abl; design: method as in vendor brief description; conditions: ref vendor brief description; read-out: IC50 Abl-1; cited from earlier work
cytomegalovirus (CMV) = tested on: cytomegalovirus (CMV); design: method as in vendor brief description; conditions: target not stated with the value; ref vendor brief description; cited from earlier work
SGLT2 = tested on: SGLT2; design: method as in vendor brief description; conditions: ref vendor brief description; cited from earlier work
B-RafV600E = tested on: B-RafV600E; design: method as in library vendor description; conditions: ref library vendor description; cited from earlier work
PPARδ = tested on: PPARδ; design: method as in vendor brief description; conditions: ref vendor brief description; cited from earlier work
in vitro = conditions: human, Host viability (%) mean
IR = tested on: IR; design: method as in library vendor description; conditions: ref library vendor description; cited from earlier work
IGF-1R = tested on: IGF-1R; design: method as in library vendor description; conditions: ref library vendor description; cited from earlier work
HDAC10 = tested on: HDAC10; design: method as in library vendor description; conditions: ref library vendor description; cited from earlier work
c-Met = tested on: c-Met; design: method as in library vendor description; conditions: ref library vendor description; cited from earlier work
HDAC = tested on: HDAC; design: method as in library vendor description; conditions: ref library vendor description; cited from earlier work
endothelin receptor-A = target: endothelin receptor-A; design: method as in vendor brief description; conditions: ref vendor brief description; cited from earlier work
ET-B = tested on: ET-B; design: method as in vendor brief description; conditions: ref vendor brief description; read-out: IC50 endothelin (ET) B receptor; cited from earlier work
rabbit cathepsin K = tested on: rabbit cathepsin K; design: method as in library vendor description; conditions: ref library vendor description; cited from earlier work
human cathepsin K = tested on: human cathepsin K; design: method as in library vendor description; conditions: ref library vendor description; cited from earlier work
[3] = target: cannabinoid type 1 receptor; design: method as in vendor brief description; conditions: ref vendor brief description; cited from earlier work
5-HT2B = tested on: 5-HT2B; design: method as in vendor brief description; conditions: ref vendor brief description; cited from earlier work
[4] = target: influenza viral neuraminidase; design: method as in vendor catalog number S2716; conditions: median; compound library brief description; ref vendor catalog number S2716; read-out: IC50 of median (influenza viral neuraminidase inhibitor); cited from earlier work
[5] = tested on: CXCL12-mediated chemotaxis; conditions: read-out: IC50 CXCL12-mediated chemotaxis; ref vendor brief description; cited from earlier work
CXCR4 = tested on: CXCR4; design: method as in vendor brief description; conditions: ref vendor brief description; cited from earlier work
S. aureus ribosomes = target: S. aureus ribosomes; design: method as in vendor catalog number S4056; conditions: similar potencies on both ribosomes; compound library brief description; ref vendor catalog number S4056; read-out: Kd (binds to S. aureus ribosomes); cited from earlier work
Pim1 = conditions: read-out: IC50 Pim1; ref vendor brief description; cited from earlier work
ALK = tested on: ALK; design: method as in library vendor description; conditions: ref library vendor description; cited from earlier work
gastric H+, K+-ATPase = target: gastric H+, K+-ATPase; design: method as in vendor brief description; conditions: at pH 6.5; ref vendor brief description; cited from earlier work
P-glycoprotein = target: P-glycoprotein; design: method as in vendor brief description; conditions: ref vendor brief description; cited from earlier work
[6] = target: secretory phospholipase A2 (sPLA); design: method as in library vendor description; conditions: ref library vendor description; cited from earlier work
P-gp = tested on: P-gp; design: method as in library vendor description; conditions: ref library vendor description; cited from earlier work
hedgehog = tested on: hedgehog; design: method as in library vendor description; conditions: ref library vendor description; cited from earlier work
5-HT(1B) = tested on: 5-HT(1B); design: method as in vendor brief description; conditions: ref vendor brief description; cited from earlier work
5-HT1A = tested on: 5-HT1A; design: method as in vendor brief description; conditions: ref vendor brief description; cited from earlier work
5-HT3A = tested on: 5-HT3A; design: method as in vendor brief description; conditions: ref vendor brief description; read-out: IC50 5-HT(3A); cited from earlier work
SERT = tested on: SERT; design: method as in vendor brief description; conditions: ref vendor brief description; cited from earlier work
5-HT7 receptor = target: 5-HT7 receptor; design: method as in vendor brief description; conditions: ref vendor brief description; cited from earlier work
JAK3 = tested on: JAK3; design: method as in vendor brief description; conditions: ref vendor brief description; cited from earlier work
[7] = target: epidermal growth factor receptor (EGFR); design: method as in vendor brief description; conditions: ref vendor brief description; read-out: IC50 EFGR; cited from earlier work
JAK1 = tested on: JAK1; design: method as in vendor brief description; conditions: ref vendor brief description; cited from earlier work
TGM2 = tested on: TGM2; design: method as in vendor brief description; conditions: ref vendor brief description; cited from earlier work
[8] = read-out: Parasite inhibition (%) mean, preliminary screen of compound library, mean
[9] = read-out: Parasite inhibition (%) mean, preliminary screen, mean

## CC(=O)Nc1nc2c(Oc3cc(-c4ccc(C(F)(F)F)cc4)ncn3)cccc2s1 [AMG-517]
[1]
  IC50: < 10 nM
[2]; [8]
  inhibition of growth at 5 µM: 0.6%

## CCOc1cc([C@@H](CS(C)(=O)=O)N2C(=O)c3cccc(NC(C)=O)c3C2=O)ccc1OC [Apremilast (CC-10004)]
TNF-α
  IC50: 77 nM
PDE4
  IC50: 74 nM
[2]; [8]
  inhibition of growth at 5 µM: -1.4%

## COc1cc2ncnc(Oc3cccc(NC(=O)Nc4cc(C(C)(C)C(F)(F)F)on4)c3)c2cc1OC [CEP-32496]
c-Raf
  IC50: 39 nM
B-Raf
  IC50: 36 nM
CSF-1R
  IC50: 9 nM
Abl
  IC50: 3 nM
[2]; [8]
  inhibition of growth at 5 µM: 0%

## Nc1ccn(C[C@@H](CO)OCP(=O)(O)O)c(=O)n1 [Cidofovir (Vistide)]
Cytomegalovirus (CMV)
  IC50: 940 nM
[2]; [8]
  inhibition of growth at 5 µM: 0.8%

## OC[C@H]1O[C@@H](c2ccc(Cl)c(Cc3ccc(O[C@H]4CCOC4)cc3)c2)[C@H](O)[C@@H](O)[C@@H]1O [Empagliflozin (BI10773)]
SGLT2
  IC50: 3.1 nM
[2]; [8]
  inhibition of growth at 5 µM: 3.8%

## OCCn1cc(-c2ccc3c(c2)CC/C3=N\O)c(-c2ccncc2)n1 [GDC-0879]
B-RafV600E
  IC50: 0.13 nM
[2]; [9]
  inhibition of growth at 5 µM: 7.9%

## O=C(NCCS(=O)(=O)c1ccc(C(F)(F)F)cn1)c1ccc(Cl)cc1 [GSK3787]
PPARδ
  pIC50 PPARδ: GSK3787 is as a potent and selective antagonist of PPARδ with pIC50 of 6.6.
[2]; [8]
  inhibition of growth at 5 µM: 9%

## CCc1cc(Nc2nccc(-c3c(-c4ccc(OC)c(C(=O)Nc5c(F)cccc5F)c4)nc4ccccn34)n2)c(OC)cc1N1CCC(N2CCN(S(C)(=O)=O)CC2)CC1 [GSK1904529A]
In vitro
  viability at 72 h: 76.8%
IR
  IC50: 25 nM
IGF-1R
  IC50: 27 nM
[2]; [9]
  inhibition of growth at 5 µM: 70.6%

## Cn1cc(CNCC2CCN(c3ncc(C(=O)NO)cn3)CC2)c2ccccc21 [JNJ-26481585]
In vitro
  viability at 72 h: 70.5%
HDAC10
  IC50: 0.46 nM
[2]; [9]
  inhibition of growth at 5 µM: 79.4%

## Cn1cc(-c2ccc3nnc(C(F)(F)c4ccc5ncccc5c4)n3n2)cn1 [JNJ-38877605]
c-Met
  IC50: 4 nM
In vitro
  viability at 72 h: 77.5%
[2]; [9]
  inhibition of growth at 5 µM: 84.3%

## O=C(/C=C/c1ccc(CN(CCO)CCc2c[nH]c3ccccc23)cc1)NO [LAQ824 (NVP-LAQ824, Dacinostat)]
[2]; [9]
  inhibition of growth at 5 µM: 60.4%
HDAC
  IC50: 32 nM

## CCCNS(=O)(=O)Nc1ncnc(OCCOc2ncc(Br)cn2)c1-c1ccc(Br)cc1 [Macitentan]
Endothelin receptor-A
  IC50: 0.5 nM
[2]; [8]
  inhibition of growth at 5 µM: 12.3%
ET-B
  IC50: 391 nM

## CC(C)(F)C[C@H](N[C@@H](c1ccc(-c2ccc(S(C)(=O)=O)cc2)cc1)C(F)(F)F)C(=O)NC1(C#N)CC1 [Odanacatib (MK 0822)]
Rabbit cathepsin K
  IC50: 1 nM
[2]; [9]
  inhibition of growth at 5 µM: -9.7%
Human cathepsin K
  IC50: 0.2 nM

## CCNC1(C(N)=O)CCN(c2ncnc3c2nc(-c2ccccc2Cl)n3-c2ccc(Cl)cc2)CC1 [Otenabant (CP-945598) HCl]
[3]
  Ki: 0.7 nM
[2]; [8]
  inhibition of growth at 5 µM: 0.3%

## N#Cc1cc(CN2CCC(Nc3ncnc4sc(Cl)cc34)CC2)ccc1F [PRX-08066]
5-HT2B
  IC50: 3.4 nM
[2]; [8]
  inhibition of growth at 5 µM: 40.5%

## CCC(CC)[C@H](NC(C)=O)[C@@H]1[C@H](O)[C@@H](C(=O)O)C[C@H]1NC(=N)N [Peramivir Trihydrate]
[4]
  IC50: 0.09 nM
[2]; [8]
  inhibition of growth at 5 µM: -0.4%

## c1cc(CN2CCCNCCNCCCNCC2)ccc1CN1CCCNCCNCCCNCC1 [Plerixafor (AMD3100)]
[5]
  IC50: 5.7 nM
[2]; read-out: Parasite inhibition (%) mean
  inhibition of growth at 5 µM: 12.9%
CXCR4
  IC50: 44 nM

## C=C[C@]1(C)C[C@@H](OC(=O)CS[C@@H]2C[C@H]3CC[C@@H](C2)N3C)[C@]2(C)[C@H](C)CC[C@]3(CCC(=O)[C@H]32)[C@@H](C)[C@@H]1O [Retapamulin]
S. aureus ribosomes
  Kd: 3 nM

## O=C1NC(=O)/C(=C\c2cccc(C(F)(F)F)c2)S1 [SMI-4a]
[2]; [8]
  inhibition of growth at 5 µM: 8.9%
Pim1
  IC50: 17 nM

## COc1cc(N2CCC(N3CCN(C)CC3)CC2)ccc1Nc1ncc(Cl)c(Nc2ccccc2S(=O)(=O)C(C)C)n1 [TAE684 (NVP-TAE684)]
ALK
  IC50: […]
[2]; [9]
  inhibition of growth at 5 µM: 6.8%

## CNCc1cc(-c2ccccc2F)n(S(=O)(=O)c2cccnc2)c1 [TAK-438]
Gastric H+, K+-ATPase
  IC50: 19 nM
[2]; [8]
  inhibition of growth at 5 µM: -9.6%

## COc1cc2c(cc1OC)CN(CCc1ccc(NC(=O)c3cc(OC)c(OC)cc3NC(=O)c3cnc4ccccc4c3)cc1)CC2 [Tariquidar]
P-glycoprotein
  Kd: 5.1 nM
[2]; [8]
  inhibition of growth at 5 µM: 0.4%

## CCc1c(C(=O)C(N)=O)c2c(OCC(=O)O)cccc2n1Cc1ccccc1 [Varespladib (LY315920)]
[6]
  IC50: 7 nM
[2]; [9]
  inhibition of growth at 5 µM: 36.6%

## CS(=O)(=O)c1ccc(C(=O)Nc2ccc(Cl)c(-c3ccccn3)c2)c(Cl)c1 [Vismodegib (GDC-0449)]
P-gp
  IC50: […]
hedgehog
  IC50: 3 nM
[2]; [9]
  inhibition of growth at 5 µM: 25.5%

## Cc1ccc(Sc2ccccc2N2CCNCC2)c(C)c1 [Vortioxetine (Lu AA21004) hydrobromide]
5-HT(1B)
  IC50: 33 nM
5-HT1A
  IC50: 15 nM
5-HT3A
  IC50: 3.7 nM
SERT
  IC50: 1.6 nM
5-HT7 receptor
  IC50: 19 nM
[2]; [8]
  inhibition of growth at 5 µM: 66.8%

## CC(C)N(CCC(=O)c1ccc2ccccc2c1)Cc1ccccc1 [ZM 39923 HCl]
JAK3
  IC50: 7100 nM
[7]
  IC50: 5600 nM
JAK1
  IC50: 4400 nM
[2]; [8]
  inhibition of growth at 5 µM: 13.9%
TGM2
  IC50: 10 nM
